Entries after “also recorded” stand apart in the source; their conditions may differ.

One assay deals with GluN1/2A. The settings on record: cited from earlier work.
A further assay deals with GluN1/2B. The settings on record: cited from earlier work.
The subject of another assay is GluN1/2C. The settings on record: cited from earlier work.
For a further assay, the system named is GluN1/2D. The settings on record: cited from earlier work.
The next assay addresses GluN1/2B NMDA receptor (Rattus norvegicus, UniProt P35439). Format: cell-based. The settings on record: for current response to analog alone at GluN1/2B: 10 μM analog, continuous presence of 300 μM L-Glu.
The target in a further assay is GluN1/2D NMDA receptor (Rattus norvegicus, UniProt P35439). Format: cell-based.
Assay [1] deals with Gly binding site in GluN1/2B receptors (Rattus norvegicus, UniProt P35439+Q00960). Description: Inhibition of Gly responses at recombinant GluN1/2B. The format is cell-based.
The target in another assay is GluN1^FATL/3A receptors (Rattus norvegicus, UniProt Q9R1M7). Description: Two-electrode voltage-clamp at GluN1^FATL/3A receptors. Format: cell-based. The settings on record: for activation of current responses at GluN1^FATL/3A: 10 μM analog alone; for inhibition of responses to Gly at GluN1^FATL/3A: 10 μM analog in presence of Gly.
Chain of GluN1^FATL/3A receptors (Q9R1M7 24-1115 isoform Q9R1M7-2 limits assumed, other chains not shown): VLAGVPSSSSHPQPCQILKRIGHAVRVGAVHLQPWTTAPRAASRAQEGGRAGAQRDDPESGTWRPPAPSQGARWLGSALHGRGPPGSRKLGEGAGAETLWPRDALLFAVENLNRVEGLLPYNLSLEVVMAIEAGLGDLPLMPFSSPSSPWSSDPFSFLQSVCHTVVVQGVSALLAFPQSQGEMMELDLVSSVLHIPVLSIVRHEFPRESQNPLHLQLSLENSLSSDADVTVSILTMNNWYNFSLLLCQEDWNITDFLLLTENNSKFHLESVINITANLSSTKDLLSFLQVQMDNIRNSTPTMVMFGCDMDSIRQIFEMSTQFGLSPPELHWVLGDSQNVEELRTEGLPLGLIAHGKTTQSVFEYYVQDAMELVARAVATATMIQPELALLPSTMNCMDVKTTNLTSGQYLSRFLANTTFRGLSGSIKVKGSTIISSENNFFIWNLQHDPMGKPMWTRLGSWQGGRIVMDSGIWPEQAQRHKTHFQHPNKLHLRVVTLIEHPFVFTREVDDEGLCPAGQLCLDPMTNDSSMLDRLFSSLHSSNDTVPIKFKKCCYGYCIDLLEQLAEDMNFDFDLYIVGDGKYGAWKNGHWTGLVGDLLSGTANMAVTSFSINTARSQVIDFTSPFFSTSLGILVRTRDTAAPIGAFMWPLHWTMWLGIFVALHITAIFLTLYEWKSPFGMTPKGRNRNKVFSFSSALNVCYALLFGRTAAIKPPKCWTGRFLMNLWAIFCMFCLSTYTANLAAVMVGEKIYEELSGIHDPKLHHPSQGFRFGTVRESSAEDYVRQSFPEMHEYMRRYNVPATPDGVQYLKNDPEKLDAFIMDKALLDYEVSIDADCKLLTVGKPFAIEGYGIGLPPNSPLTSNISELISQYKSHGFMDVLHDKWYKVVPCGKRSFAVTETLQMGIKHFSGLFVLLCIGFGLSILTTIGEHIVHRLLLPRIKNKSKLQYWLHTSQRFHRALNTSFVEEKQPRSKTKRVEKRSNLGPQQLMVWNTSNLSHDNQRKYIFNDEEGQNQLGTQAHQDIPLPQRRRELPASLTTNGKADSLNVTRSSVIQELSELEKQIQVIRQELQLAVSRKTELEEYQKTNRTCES
The next assay addresses GluN1^FATL/3B receptors (Rattus norvegicus, UniProt Q8VHN2). The assay is described as follows: Two-electrode voltage-clamp at GluN1^FATL/3B receptors. The format is cell-based. The settings on record: for activation of current responses at GluN1^FATL/3B: 10 μM analog alone; for inhibition of responses to Gly at GluN1^FATL/3B: 10 μM analog in presence of Gly. For orientation: Two-electrode voltage clamp holds a large cell at a set potential and records current.

The next assay concerns the target GluN1/2A NMDA receptor (Rattus norvegicus, UniProt P35439). The format is cell-based.
Another assay addresses GluN1/2A-V783L (Rattus norvegicus, UniProt P35439). Description: Two-electrode voltage-clamp at mutated GluN1/2A-V783L receptors. The format is cell-based. To be noted: 10 μM analog; 300 μM L-Glu.
A further assay addresses GluN1/2A-V783F (Rattus norvegicus, UniProt P35439). Description: Two-electrode voltage-clamp at mutated GluN1/2A-V783F receptors. Format: cell-based. To be noted: 10 μM analog; 300 μM L-Glu.
The target of a further assay is GluN1/2B-F784L (Rattus norvegicus, UniProt P35439). The assay is described as follows: Two-electrode voltage-clamp at mutated GluN1/2B-F784L receptors. Format: cell-based. To be noted: 10 μM analog; 300 μM L-Glu.
The next assay addresses GluN1/2B-F784V (Rattus norvegicus, UniProt P35439). Description: Two-electrode voltage-clamp at mutated GluN1/2B-F784V receptors. The format is cell-based. To be noted: 10 μM analog; 300 μM L-Glu.
[2] abbreviates: maximal response compared to Gly.

Chain of GluN1^FATL/3B receptors (Q8VHN2 25-1002, other chains not shown): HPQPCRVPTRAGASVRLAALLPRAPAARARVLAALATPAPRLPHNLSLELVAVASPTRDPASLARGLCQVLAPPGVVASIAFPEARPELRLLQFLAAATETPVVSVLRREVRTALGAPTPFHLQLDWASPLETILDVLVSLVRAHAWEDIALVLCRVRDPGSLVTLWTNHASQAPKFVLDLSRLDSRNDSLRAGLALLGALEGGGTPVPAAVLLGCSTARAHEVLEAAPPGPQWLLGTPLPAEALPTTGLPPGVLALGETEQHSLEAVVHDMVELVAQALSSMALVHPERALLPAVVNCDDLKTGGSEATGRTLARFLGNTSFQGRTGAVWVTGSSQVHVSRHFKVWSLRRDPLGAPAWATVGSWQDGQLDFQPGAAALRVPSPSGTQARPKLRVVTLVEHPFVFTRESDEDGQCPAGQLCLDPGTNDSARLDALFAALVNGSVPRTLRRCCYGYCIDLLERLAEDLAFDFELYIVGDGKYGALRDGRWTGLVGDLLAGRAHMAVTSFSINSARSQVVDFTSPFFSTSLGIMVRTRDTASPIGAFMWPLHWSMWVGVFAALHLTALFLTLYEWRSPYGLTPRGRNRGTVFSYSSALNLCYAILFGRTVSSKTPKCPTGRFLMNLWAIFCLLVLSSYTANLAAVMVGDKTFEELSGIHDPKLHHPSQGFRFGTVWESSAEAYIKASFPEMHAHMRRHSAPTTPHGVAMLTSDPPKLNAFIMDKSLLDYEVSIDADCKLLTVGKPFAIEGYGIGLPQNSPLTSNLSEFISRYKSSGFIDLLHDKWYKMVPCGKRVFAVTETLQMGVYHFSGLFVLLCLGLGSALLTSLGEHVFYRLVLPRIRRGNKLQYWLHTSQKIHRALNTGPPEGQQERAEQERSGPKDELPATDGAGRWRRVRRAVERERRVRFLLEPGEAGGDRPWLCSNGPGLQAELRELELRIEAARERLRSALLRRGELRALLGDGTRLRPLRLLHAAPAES

For the compound `CCc1ccccc1-c1cccc2[nH]c(C(=O)NC[C@@H](N)C(=O)O)cc12` [AICP, (R)-2-Amino-3-(4-(2-ethylphenyl)-1H-indole-2-carboxamido)propanoic acid], the “Rmax at GluN1/2A” value in the assay on GluN1/2A (setting [2]) is listed as 100%. In addition, the EC50 with GluN1/2A (read-out: EC50 at GluN1/2A, full agonism) is 66 nM; in the assay with GluN1/2B (read-out: EC50 at GluN1/2B, partial agonist), 25 nM; with GluN1/2C (read-out: EC50 at GluN1/2C, superagonism) it was 1.7 nM; in the assay on GluN1/2D (read-out: EC50 at GluN1/2D, partial agonist) it was 25 nM. Moreover, the “Rmax at GluN1/2B” value in the assay on GluN1/2B (setting [2]) is reported as 10%. Further, the “Rmax at GluN1/2C” value in the assay on GluN1/2C (setting [2]) is reported as 353%. In addition, the “Rmax at GluN1/2D” value with GluN1/2D (setting [2]) was 27%.
`N[C@H](CNC(=O)c1ccc(-c2ccccc2C(F)(F)F)o1)C(=O)O` [Compound 8d, (R)-2-Amino-3-(5-(2-(trifluoromethyl)phenyl)furan-2-carboxamido)propanoic acid]: the “agonist activity at GluN1/2B (in words)” value at GluN1/2B NMDA receptor is on record as “no agonist activity”. Further, the “agonist activity at GluN1/2D (in words)” value at GluN1/2D NMDA receptor is “no agonist activity”.
In general, Ki refers to a dissociation constant, usually derived from enzyme kinetics or from competition with a known ligand. `CCc1ccccc1-c1ccc(C(=O)NC[C@@H](N)C(=O)O)o1` [Compound 8h, (R)-2-Amino-3-(5-(2-ethylphenyl)furan-2-carboxamido)propanoic acid]: on GluN1/2B NMDA receptor, the “agonist activity at GluN1/2B (in words)” value is listed as “no agonist activity” and the “current response to analog alone at GluN1/2B” value was “unable to activate any current responses; also recorded: No responses”. Further, the Ki in assay [1] is ~100 nM. Further, at GluN1^FATL/3A receptors, the “activation of current responses at GluN1^FATL/3A” value is reported as “No responses; also recorded: did not activate current responses” and the “inhibition of responses to Gly at GluN1^FATL/3A” value is on record as “did not inhibit responses to Gly”. Moreover, on GluN1^FATL/3B receptors, the “activation of current responses at GluN1^FATL/3B” value was “No responses; also recorded: did not activate current responses” and the “inhibition of responses to Gly at GluN1^FATL/3B” value is “did not inhibit responses to Gly”.
With `N[C@H](CNC(=O)c1ccc(-c2ccc(Cl)cc2[N+](=O)[O-])o1)C(=O)O` [Compound 8p, (R)-2-amino-3-(5-(4-chloro-2-nitrophenyl)furan-2-carboxamido)propanoic acid], the “agonist activity at GluN1/2A (in words)” value on GluN1/2A NMDA receptor is reported as “virtually no agonist activity”. At GluN1/2B NMDA receptor, the “agonist activity at GluN1/2B (in words)” value is recorded as “virtually no agonist activity” and the “current response to analog alone at GluN1/2B” value is reported as “unable to activate any current responses; also recorded: No responses”. For the same compound, at GluN1/2D NMDA receptor, the “agonist activity at GluN1/2D (in words)” value is given as “virtually no agonist activity”. Further, in assay [1], the Ki is ~100 nM. At GluN1^FATL/3A receptors, the “activation of current responses at GluN1^FATL/3A” value is on record as “No responses; also recorded: did not activate current responses” and the “inhibition of responses to Gly at GluN1^FATL/3A” value is given as “did not inhibit responses to Gly”. For the same compound, at GluN1^FATL/3B receptors, the “activation of current responses at GluN1^FATL/3B” value was “No responses; also recorded: did not activate current responses” and the “inhibition of responses to Gly at GluN1^FATL/3B” value is “did not inhibit responses to Gly”. Besides, the “maximal response relative to Gly at GluN1/2A-V783L versus wild type” value at GluN1/2A-V783L was “reduced the maximal response”. Also, the “maximal response relative to Gly at GluN1/2A-V783F versus wild type” value at GluN1/2A-V783F is “reduced the maximal response”. In addition, the “maximal response relative to Gly at GluN1/2B-F784L versus wild type” value at GluN1/2B-F784L is “did not significantly increase the maximal response”. Further, the “maximal response relative to Gly at GluN1/2B-F784V versus wild type” value on GluN1/2B-F784V is “did not significantly increase the maximal response”.

The record behind these values is paper PMC9437973 (Journal of medicinal chemistry, 2021).
